In ChEMBL document CHEMBL5291721, “A preclinical secondary pharmacology resource illuminates target-adverse drug reaction associations of marketed drugs” (Nat Commun, 2023):

Legend:
[1] = molecular target: T1, Alpha-2B adrenergic receptor (Homo sapiens, UniProt P18089)
T1 sequence (P18089 whole entry): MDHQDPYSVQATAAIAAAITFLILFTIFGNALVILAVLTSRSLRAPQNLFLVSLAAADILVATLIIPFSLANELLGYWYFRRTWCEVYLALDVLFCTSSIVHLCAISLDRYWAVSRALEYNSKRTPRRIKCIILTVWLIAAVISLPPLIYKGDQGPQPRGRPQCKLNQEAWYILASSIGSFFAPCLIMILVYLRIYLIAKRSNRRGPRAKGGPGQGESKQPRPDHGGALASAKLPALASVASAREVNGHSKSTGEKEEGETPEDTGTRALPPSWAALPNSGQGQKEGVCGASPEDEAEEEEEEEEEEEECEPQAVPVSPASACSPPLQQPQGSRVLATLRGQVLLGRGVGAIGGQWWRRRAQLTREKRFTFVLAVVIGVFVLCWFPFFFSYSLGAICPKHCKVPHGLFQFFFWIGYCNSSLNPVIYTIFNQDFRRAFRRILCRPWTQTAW

[2] = molecular target: Beta-2 adrenergic receptor (Homo sapiens, UniProt P07550)
Androgen receptor = molecular target: T2, Androgen receptor (Rattus norvegicus, UniProt P15207); format: functional
T2 sequence (P15207 whole entry): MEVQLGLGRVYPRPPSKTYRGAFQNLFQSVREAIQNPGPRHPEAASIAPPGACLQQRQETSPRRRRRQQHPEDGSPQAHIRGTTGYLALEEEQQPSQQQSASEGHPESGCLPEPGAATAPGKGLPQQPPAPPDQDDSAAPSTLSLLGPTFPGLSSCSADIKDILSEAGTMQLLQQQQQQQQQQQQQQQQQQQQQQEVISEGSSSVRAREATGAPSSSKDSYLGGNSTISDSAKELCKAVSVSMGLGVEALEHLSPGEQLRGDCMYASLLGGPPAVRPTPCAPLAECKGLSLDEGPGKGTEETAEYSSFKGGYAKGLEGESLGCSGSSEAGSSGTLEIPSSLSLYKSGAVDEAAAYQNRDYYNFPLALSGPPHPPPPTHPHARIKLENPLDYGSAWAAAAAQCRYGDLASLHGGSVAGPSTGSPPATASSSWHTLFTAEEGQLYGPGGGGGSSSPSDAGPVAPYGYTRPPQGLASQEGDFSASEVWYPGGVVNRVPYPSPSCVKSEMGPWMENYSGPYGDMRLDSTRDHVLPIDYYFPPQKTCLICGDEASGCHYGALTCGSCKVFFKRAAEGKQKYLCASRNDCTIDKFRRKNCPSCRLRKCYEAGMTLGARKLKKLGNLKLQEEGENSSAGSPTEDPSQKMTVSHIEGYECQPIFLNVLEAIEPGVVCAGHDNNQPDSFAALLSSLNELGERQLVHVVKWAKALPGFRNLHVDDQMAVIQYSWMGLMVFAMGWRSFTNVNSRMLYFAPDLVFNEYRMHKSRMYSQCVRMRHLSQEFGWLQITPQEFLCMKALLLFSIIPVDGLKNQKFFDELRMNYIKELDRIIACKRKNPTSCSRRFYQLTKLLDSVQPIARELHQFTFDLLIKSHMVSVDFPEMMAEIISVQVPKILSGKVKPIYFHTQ

[3] = molecular target: T3, Muscarinic acetylcholine receptor M1 (Homo sapiens, UniProt P11229); format: functional
T3 sequence (P11229 whole entry): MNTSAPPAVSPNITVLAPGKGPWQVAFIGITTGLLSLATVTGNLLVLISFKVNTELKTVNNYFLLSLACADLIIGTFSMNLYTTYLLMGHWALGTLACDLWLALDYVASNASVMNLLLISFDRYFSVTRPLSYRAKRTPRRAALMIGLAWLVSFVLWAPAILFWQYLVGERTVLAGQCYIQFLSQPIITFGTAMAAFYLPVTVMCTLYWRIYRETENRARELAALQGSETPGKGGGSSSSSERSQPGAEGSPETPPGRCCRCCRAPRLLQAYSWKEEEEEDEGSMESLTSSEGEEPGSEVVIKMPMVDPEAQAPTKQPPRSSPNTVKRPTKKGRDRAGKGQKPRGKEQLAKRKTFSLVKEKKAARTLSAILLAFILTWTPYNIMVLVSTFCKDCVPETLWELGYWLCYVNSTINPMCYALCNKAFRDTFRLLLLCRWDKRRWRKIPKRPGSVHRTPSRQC

[4] = molecular target: T4, Muscarinic acetylcholine receptor M2 (Homo sapiens, UniProt P08172); format: functional, cell-based
T4 sequence (P08172 whole entry): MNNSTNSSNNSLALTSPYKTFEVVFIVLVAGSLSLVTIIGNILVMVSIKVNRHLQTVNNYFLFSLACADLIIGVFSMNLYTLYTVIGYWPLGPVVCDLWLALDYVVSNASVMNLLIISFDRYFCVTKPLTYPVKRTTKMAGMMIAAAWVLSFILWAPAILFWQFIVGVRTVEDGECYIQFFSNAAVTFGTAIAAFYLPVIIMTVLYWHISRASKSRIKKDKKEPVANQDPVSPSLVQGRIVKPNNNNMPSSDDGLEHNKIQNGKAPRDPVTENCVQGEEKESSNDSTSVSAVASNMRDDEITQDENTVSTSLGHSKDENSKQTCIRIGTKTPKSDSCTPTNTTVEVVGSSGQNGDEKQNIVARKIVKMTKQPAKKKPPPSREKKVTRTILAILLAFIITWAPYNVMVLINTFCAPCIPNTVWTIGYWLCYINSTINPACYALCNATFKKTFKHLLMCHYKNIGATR

[5] = molecular target: T4, Muscarinic acetylcholine receptor M2; format: functional, cell-based; remark: listed apart in the source
[6] = molecular target: Growth hormone secretagogue receptor type 1 (Homo sapiens, UniProt Q92847)
Sequence of Growth hormone secretagogue receptor type 1 (Q92847 whole entry): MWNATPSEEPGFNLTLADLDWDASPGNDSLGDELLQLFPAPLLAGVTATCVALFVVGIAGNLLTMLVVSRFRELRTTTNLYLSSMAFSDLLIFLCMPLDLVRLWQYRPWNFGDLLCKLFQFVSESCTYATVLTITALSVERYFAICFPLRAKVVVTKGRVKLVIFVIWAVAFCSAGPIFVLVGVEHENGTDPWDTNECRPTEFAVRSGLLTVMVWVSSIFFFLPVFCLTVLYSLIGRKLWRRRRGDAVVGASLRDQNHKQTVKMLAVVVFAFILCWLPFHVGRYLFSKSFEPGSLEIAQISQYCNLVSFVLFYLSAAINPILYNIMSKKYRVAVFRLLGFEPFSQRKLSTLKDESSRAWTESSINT

[7] = molecular target: 5-hydroxytryptamine receptor 2B (Homo sapiens, UniProt P41595); format: functional, cell-based
Sequence of 5-hydroxytryptamine receptor 2B (P41595 whole entry): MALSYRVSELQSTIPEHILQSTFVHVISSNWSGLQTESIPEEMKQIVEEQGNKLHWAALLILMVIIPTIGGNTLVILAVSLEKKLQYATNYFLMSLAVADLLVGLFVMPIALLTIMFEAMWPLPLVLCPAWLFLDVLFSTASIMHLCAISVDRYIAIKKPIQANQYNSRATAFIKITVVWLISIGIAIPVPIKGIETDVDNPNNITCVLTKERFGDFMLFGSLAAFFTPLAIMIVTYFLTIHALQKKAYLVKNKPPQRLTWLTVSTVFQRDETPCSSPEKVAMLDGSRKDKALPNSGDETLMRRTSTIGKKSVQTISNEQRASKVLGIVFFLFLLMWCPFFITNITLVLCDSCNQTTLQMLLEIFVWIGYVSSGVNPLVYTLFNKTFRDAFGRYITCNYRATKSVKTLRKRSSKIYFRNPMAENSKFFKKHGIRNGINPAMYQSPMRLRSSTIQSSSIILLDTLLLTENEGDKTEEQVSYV

Mu-type opioid receptor = Mu-type opioid receptor (Homo sapiens, UniProt P35372); experiment: biochemical; format: functional
Sequence of Mu-type opioid receptor (P35372 whole entry): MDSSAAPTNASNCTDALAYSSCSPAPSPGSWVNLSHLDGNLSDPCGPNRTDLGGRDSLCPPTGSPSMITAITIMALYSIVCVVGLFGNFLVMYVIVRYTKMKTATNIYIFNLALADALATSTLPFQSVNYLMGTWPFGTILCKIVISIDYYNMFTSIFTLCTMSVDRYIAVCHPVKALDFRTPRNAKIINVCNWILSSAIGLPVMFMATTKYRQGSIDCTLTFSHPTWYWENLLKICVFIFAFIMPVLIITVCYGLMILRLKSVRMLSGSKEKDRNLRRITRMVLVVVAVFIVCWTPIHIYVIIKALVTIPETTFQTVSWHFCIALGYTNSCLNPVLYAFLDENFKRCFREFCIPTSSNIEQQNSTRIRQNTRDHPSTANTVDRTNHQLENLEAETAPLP

Thromboxane A2 receptor = molecular target: T5, Thromboxane A2 receptor (Homo sapiens, UniProt P21731)
T5 sequence (P21731 whole entry): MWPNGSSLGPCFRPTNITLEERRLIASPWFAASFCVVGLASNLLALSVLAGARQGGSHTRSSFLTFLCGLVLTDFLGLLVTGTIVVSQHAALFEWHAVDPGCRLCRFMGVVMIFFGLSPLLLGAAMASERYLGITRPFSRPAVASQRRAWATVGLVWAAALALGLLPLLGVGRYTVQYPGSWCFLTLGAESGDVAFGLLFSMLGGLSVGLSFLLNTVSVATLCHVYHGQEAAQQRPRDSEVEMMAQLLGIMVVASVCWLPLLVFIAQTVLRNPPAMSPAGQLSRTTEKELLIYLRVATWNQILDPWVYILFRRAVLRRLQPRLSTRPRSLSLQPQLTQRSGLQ

D(3) dopamine receptor = D(3) dopamine receptor (Homo sapiens, UniProt P35462)
Sequence of D(3) dopamine receptor (P35462 whole entry): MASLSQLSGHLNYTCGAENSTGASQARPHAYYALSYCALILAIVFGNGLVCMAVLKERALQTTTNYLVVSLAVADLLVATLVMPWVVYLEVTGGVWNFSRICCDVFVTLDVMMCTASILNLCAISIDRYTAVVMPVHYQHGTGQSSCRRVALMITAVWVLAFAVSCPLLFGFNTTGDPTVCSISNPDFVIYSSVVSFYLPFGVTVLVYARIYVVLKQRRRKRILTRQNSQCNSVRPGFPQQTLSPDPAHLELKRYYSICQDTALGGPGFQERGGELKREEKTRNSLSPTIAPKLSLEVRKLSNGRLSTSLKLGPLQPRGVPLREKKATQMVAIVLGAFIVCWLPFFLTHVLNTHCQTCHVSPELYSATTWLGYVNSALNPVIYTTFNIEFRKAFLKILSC
Note: assay procedure not described here.

AC50 [1]: > 30 µM
AC50 [2]: > 30 µM
AC50 (Androgen receptor): > 30 µM
AC50 [3]: > 30 µM
AC50 [4]: > 30 µM
AC50 [5]: > 30 µM
AC50 [6]: > 30 µM
AC50 [7]: > 30 µM
AC50 (Mu-type opioid receptor): > 30 µM
AC50 (Thromboxane A2 receptor): > 30 µM
AC50 (D(3) dopamine receptor): > 30 µM
Sequence: HYDROXOCOBALAMIN
